Read-outs that look alike come from different tables or passages of the source.
What was measured:
Sprague-Dawley rats = assay: Drug discrimination in the rat (5-MeO-DMT cue); type: in vivo; conditions: for dose required to show generalization to the 5-MeO-DMT cue: oral administration; for ED50: Rattus norvegicus, read-out: ED50, generalization to the 5-MeO-DMT cue
Experimental: Male Sprague-Dawley rats were initially food restricted by presentation of 18-20 g food at day end (single housing). After 7 days acclimatisation to the food restriction procedure, they were trained daily to lever press for food (45 mg Bioserve pellet) in standard 2-lever operant conditioning chambers controlled by Med-PC software over a period of 1 week (Med. Associates Ins., St. Albans, VT). The rats were trained to lever press for food to an FR10 value (i.e 10 lever presses for a single food reward). Once stable food responding was acquired to both response levers, discrimination training began. […] Training sessions lasted 30-min or until the delivery of 50 pellets and continued until the animals attained appropriate stimulus control (defined as six consecutive sessions where animals made no more than 16 lever presses before the delivery of the first reward, and at least 95% total responses on the appropriate lever). The rats continued to receive daily food ration in their home cage at day end.
Once trained, tests of substitution were conducted. […] Test sessions continued until 50 pellets had been obtained or 30 min had elapsed. During these sessions response rate was also measured.

C57BL/6J mice = assay: Mouse head twitch; type: in vivo; conditions: for head twitch response: doses of up to 30 mg/kg
Experimental: (§1) The effect of different doses of representative compounds of Formula I were evaluated on head-twitch response (HTR) and other behavioural responses indicative of serotonin syndrome as behavior-based models of psychedelic activity.
Male, C57BL/6J mice (body weight range 20-30 g) were dosed with the appropriate dose of test article, and following a 1-minute pre-treatment time, placed in individual observation chambers. Animals were visually assessed for the incidence head twitches continuously over a 1 hr period. Head twitches were defined as a rapid jerk of the head which was not elicited by an external tactile stimulus (Come and Pickering, Psychopharmacologia, 1967, 11(1): 65-78). Each head twitch was individually counted by a trained observer, and the data expressed as the mean+SEM of 6-10 mice per group. Mice were used in a single experiment only.

[1] = Liver microsomes stability, human; conditions: for Predicted hepatic CL: Human liver microsomes; for Remaining Percentage (%): Human; for CLint scaled at 2 μM / half-life at 2 μM / microsomal CLint at 2 μM: human, microsomes
Experimental: (§2) The objective of this study was to estimate in vitro metabolic stability of representative compounds of the application in pooled human and male mouse liver microsomes. The concentrations of parent compounds in reaction systems were evaluated by LC-MS/MS for estimating the stability in pooled human and male mouse liver microsomes. The in vitro intrinsic clearances of test compounds were determined as well.
(§3) A master solution in the “Incubation Plate” containing phosphate buffer, ultra-pure H2O, MgCl2 solution and liver microsomes was made according to Table 3. The mixture was pre-warmed at 37° C. water bath for 5 minutes.
(§4) 40 μL of 10 mM NADPH solution was added to each well. The final concentration of NADPH was 1 mM. The negative control samples were prepared by replacing NADPH with 40 μL of ultra-pure H2O. Samples were prepared in duplicate. Negative controls were prepared in singlet.
(§5) The reaction was started with the addition of 4 μL of 200 μM test compounds or control compounds to each master solution to get the final concentration of 2 μM. This study was performed in duplicate.
(§6) Aliquots of 50 μL were taken from the reaction solution at 0, 15, 30, 45 and 60 minutes. The reaction solutions were stopped by the addition of 4 volumes of cold methanol with IS (100 nM alprazolam, 200 nM imipramine, 200 nM labetalol and 2 μM ketoprofen). Samples were centrifuged at 3,220 g for 40 minutes. Aliquot of 90 μL of the supernatant was mixed with 90 μL of ultra-pure H2O and then was used for LC-MS/MS analysis.
(§7) LC/MS analysis was performed for all samples from this study using a Shimadzu liquid chromatograph separation system equipped with degasser DGU-20A5R; solvent delivery unit LC-30AD; system controller SIL-30AC; column oven CTO-30A; CTC Analytics HTC PAL System. Mass spectrometric analysis was performed using an Triple Quad™ 5500 instrument.
(§8) All calculations were carried out using Microsoft Excel. Peak area ratios of test compound to internal standard (listed in the below table) were determined from extracted ion chromatograms.
(§9) All calculations were carried out using Microsoft Excel. Peak areas were determined from extracted ion chromatograms. The slope value, k, was determined by linear regression of the natural logarithm of the remaining percentage of the parent drug vs. incubation time curve.
(§10) The in vitro half-life (in vitro t1/2) was determined from the slope value:
(§11) Conversion of the in vitro t1/2(min) into the in vitro intrinsic clearance (in vitro CLint, in μL/min/mg proteins) was done using the following equation (mean of duplicate determinations): […]

[2] = Liver microsomes stability, dog; conditions: for Predicted hepatic CL: Dog liver microsomes; for Remaining Percentage (%): Dog; for CLint scaled at 2 μM / half-life at 2 μM / microsomal CLint at 2 μM: dog, microsomes
human 5-HT2A receptor = human 5-HT2A receptor (Homo sapiens (Human), UniProt P28223); assay: Human 5-HT2A radioligand binding assay ([3H]-ketanserin)
mice = assay: Mouse 5-HT syndrome assay; type: in vivo; conditions: doses of up to 30 mg/kg
Experimental: as §1

[3] = Liver microsomes stability, rat; conditions: for Predicted hepatic CL: Rat liver microsomes; for Remaining Percentage (%): Rat; for CLint scaled at 2 μM / half-life at 2 μM / microsomal CLint at 2 μM: rat, microsomes
Experimental: as §2, §3, §4, §5, §6, §7, §8, §9, §10, §11

[4] = Liver microsomes stability, mouse; conditions: for Predicted hepatic CL: Mouse liver microsomes; for Remaining Percentage (%): Mouse; for CLint scaled at 2 μM / half-life at 2 μM / microsomal CLint at 2 μM: male, mouse, microsomes
Experimental: as §2, §3, §4, §5, §6, §7, §8, §9, §10, §11

COc1ccc2[nH]cc(CCN(C)C)c2c1 [Compound 5-MeO-DMT, 5-methoxy-dimethoxytryptamine, reference compound]
ED50, generalization to the 5-MeO-DMT cue (Sprague-Dawley rats; SC administration, FIG. 8): ~0.2 mg/kg
dose required to show generalization to the 5-MeO-DMT cue (Sprague-Dawley rats; FIG. 8): 10 mg/kg
ED50, head twitch response (C57BL/6J mice; mouse, SC): 8 mg/kg
duration of HT expression (C57BL/6J mice; mouse, at 10-30 mg/kg): 0 to 20 min

[2H]C([2H])(c1cn(C(=O)CCCCCCC/C=C\C/C=C\CCCCC)c2ccccc12)[C@H]1CCCN1C([2H])([2H])[2H] [Compound I-2, (9Z,12Z)-1-(3-(((R)-1-(Methyl-d3)pyrrolidin-2-yl)methyl-d2)-1H-indol-1-yl)octadeca-9,12-dien-1-one]
ED50 (Sprague-Dawley rats): ~30 mg/kg
level of partial generalization to the 5-MeO-DMT cue (Sprague-Dawley rats; rats trained to 1 mg/kg 5-MeO-DMT vs saline, FIG. 7): ~60%
Predicted hepatic CL [1]: 5.79 mL/min/kg
Remaining Percentage (%) ([1]; With NADPH, 0 min): 100.00%
Remaining Percentage (%) ([1]; With NADPH, 30 min): 87.61%
Remaining Percentage (%) ([1]; With NADPH, 60 min): 82.52%
Remaining Percentage (%) ([1]; Without NADPH, 0 min): 100.00%
Remaining Percentage (%) ([1]; Without NADPH, 30 min): 114.91%
Remaining Percentage (%) ([1]; Without NADPH, 60 min): 83.75%
CLint scaled at 2 μM [1]: 8.03 mL/min/kg
half-life at 2 μM [1]: 3.61 h
microsomal CLint at 2 μM [1]: 6.4 µL/min/mg
Predicted hepatic CL [2]: 22.14 mL/min/kg
Remaining Percentage (%) ([2]; With NADPH, 0 min): 100.00%
Remaining Percentage (%) ([2]; With NADPH, 30 min): 66.91%
Remaining Percentage (%) ([2]; With NADPH, 60 min): 39.08%
Remaining Percentage (%) ([2]; Without NADPH, 0 min): 100.00%
Remaining Percentage (%) ([2]; Without NADPH, 30 min): 94.42%
Remaining Percentage (%) ([2]; Without NADPH, 60 min): 91.63%
CLint scaled at 2 μM [2]: 78.1 mL/min/kg
half-life at 2 μM [2]: 0.738 h
microsomal CLint at 2 μM [2]: 31.3 µL/min/mg
head twitch response (C57BL/6J mice; mouse): robust head twitch response
IC50 (human 5-HT2A receptor): < 2000 nM
signs of 5-HT syndrome (mice): no signs of 5-HT syndrome
Predicted hepatic CL [3]: 27.34 mL/min/kg
Remaining Percentage (%) ([3]; With NADPH, 0 min): 100.00%
Remaining Percentage (%) ([3]; With NADPH, 30 min): 56.08%
Remaining Percentage (%) ([3]; With NADPH, 60 min): 40.37%
Remaining Percentage (%) ([3]; Without NADPH, 0 min): 100.00%
Remaining Percentage (%) ([3]; Without NADPH, 30 min): 94.64%
Remaining Percentage (%) ([3]; Without NADPH, 60 min): 84.47%
CLint scaled at 2 μM [3]: 54.2 mL/min/kg
half-life at 2 μM [3]: 0.764 h
microsomal CLint at 2 μM [3]: 30.2 µL/min/mg
Predicted hepatic CL [4]: 50.97 mL/min/kg
Remaining Percentage (%) ([4]; With NADPH, 0 min): 100.00%
Remaining Percentage (%) ([4]; With NADPH, 30 min): 71.53%
Remaining Percentage (%) ([4]; With NADPH, 60 min): 44.66%
Remaining Percentage (%) ([4]; Without NADPH, 0 min): 100.00%
Remaining Percentage (%) ([4]; Without NADPH, 30 min): 95.81%
Remaining Percentage (%) ([4]; Without NADPH, 60 min): 80.93%
CLint scaled at 2 μM [4]: 118 mL/min/kg
half-life at 2 μM [4]: 0.86 h
microsomal CLint at 2 μM [4]: 26.9 µL/min/mg

[2H]C([2H])(c1cn(C(=O)CCCCCCC/C=C\C/C=C\CCCCC)c2ccc(OC)cc12)[C@H]1CCCN1C([2H])([2H])[2H] [Compound I-3, (9Z,12Z)-1-(5-Methoxy-3-(((R)-1-(methyl-d3)pyrrolidin-2-yl)methyl-d2)-1H-indol-1-yl)octadeca-9,12-dien-1-one]
ED50 (Sprague-Dawley rats; SC administration, FIG. 8): ~6 mg/kg
dose required to show generalization to the 5-MeO-DMT cue (Sprague-Dawley rats; FIG. 8): 100 mg/kg
head twitch response (C57BL/6J mice; mouse): robust head twitch response
IC50 (human 5-HT2A receptor): < 2000 nM
signs of 5-HT syndrome (mice): no signs of 5-HT syndrome

CCCCC/C=C\C/C=C\CCCCCCCC(=O)n1cc(CCN(C)C)c2ccccc21 [Compound I-8, (9Z,12Z)-1-(3-(2-(Dimethylamino)ethyl)-1H-indol-1-yl)octadeca-9,12-dien-1-one]
Predicted hepatic CL [1]: 2.16 mL/min/kg
Remaining Percentage (%) ([1]; With NADPH, 0 min): 100.00%
Remaining Percentage (%) ([1]; With NADPH, 30 min): 91.39%
Remaining Percentage (%) ([1]; With NADPH, 60 min): 94.38%
Remaining Percentage (%) ([1]; Without NADPH, 0 min): 100.00%
Remaining Percentage (%) ([1]; Without NADPH, 30 min): 91.04%
Remaining Percentage (%) ([1]; Without NADPH, 60 min): 100.94%
CLint scaled at 2 μM [1]: 2.42 mL/min/kg
half-life at 2 μM [1]: 12 h
microsomal CLint at 2 μM [1]: 1.93 µL/min/mg
Predicted hepatic CL [2]: 18.69 mL/min/kg
Remaining Percentage (%) ([2]; With NADPH, 0 min): 100.00%
Remaining Percentage (%) ([2]; With NADPH, 30 min): 66.41%
Remaining Percentage (%) ([2]; With NADPH, 60 min): 56.62%
Remaining Percentage (%) ([2]; Without NADPH, 0 min): 100.00%
Remaining Percentage (%) ([2]; Without NADPH, 30 min): 84.36%
Remaining Percentage (%) ([2]; Without NADPH, 60 min): 92.44%
CLint scaled at 2 μM [2]: 47.3 mL/min/kg
half-life at 2 μM [2]: 1.22 h
microsomal CLint at 2 μM [2]: 19 µL/min/mg
IC50 (human 5-HT2A receptor; [3H]-ketanserin competition, read-out: h5-HT2A IC50): < 2000 nM
Predicted hepatic CL [3]: 12.94 mL/min/kg
Remaining Percentage (%) ([3]; With NADPH, 0 min): 100.00%
Remaining Percentage (%) ([3]; With NADPH, 30 min): 91.29%
Remaining Percentage (%) ([3]; With NADPH, 60 min): 75.35%
Remaining Percentage (%) ([3]; Without NADPH, 0 min): 100.00%
Remaining Percentage (%) ([3]; Without NADPH, 30 min): 107.31%
Remaining Percentage (%) ([3]; Without NADPH, 60 min): 109.93%
CLint scaled at 2 μM [3]: 16.9 mL/min/kg
half-life at 2 μM [3]: 2.45 h
microsomal CLint at 2 μM [3]: 9.44 µL/min/mg
Predicted hepatic CL [4]: 6.52 mL/min/kg
Remaining Percentage (%) ([4]; With NADPH, 0 min): 100.00%
Remaining Percentage (%) ([4]; With NADPH, 30 min): 105.41%
Remaining Percentage (%) ([4]; With NADPH, 60 min): 95.29%
Remaining Percentage (%) ([4]; Without NADPH, 0 min): 100.00%
Remaining Percentage (%) ([4]; Without NADPH, 30 min): 87.39%
Remaining Percentage (%) ([4]; Without NADPH, 60 min): 85.47%
CLint scaled at 2 μM [4]: 7.03 mL/min/kg
half-life at 2 μM [4]: 14.4 h
microsomal CLint at 2 μM [4]: 1.61 µL/min/mg

COc1cccc([C@H](O)C2CCN(CCc3ccc(F)cc3)CC2)c1OC [Compound M100907, reference compound]
effect of antagonist pretreatment on HTR induced by I-1 (C57BL/6J mice; mice pretreated with M100907 prior to I-1): completely blocked
